Laboratory results from patent publication US20240108559A1, “TOPICAL COMPOSITIONS CONTAINING SYNTHETIC ESTERS OF SINAPINIC ACID AND METHODS FOR TREATING KERATIN SURFACES” (ELC MANAGEMENT LLC, priority 2017, published 2024).
Counter-ions that a name gives are not always drawn.

Experiments:
[1] = UV absorbance peak stability over time and temperature (UV visible spectroscopy); assay type: physicochemical; conditions: 1.4 and 14 ppm in 50/50 water and butylene glycol, time 0, week 1, 2, 4, 25°, 40°, 50° C., FIG. 1, FIG. 2
Description: Sinapoyl malate and CAPE were evaluated for UV absorption. 50 and 100 ppm of each compound was dissolved in water and a second sample set of isopropanol. Additional samples of sinapyl malate and CAPE were prepared by dissolving 0.025% and 0.05% of each ingredient in a 50/50 mixture of water and butylene glycol. Further dilution to obtain a concentration of 1.4 ppm and 14 ppm was performed.
The samples were tested for UV absorption across the UV range by measuring with an Agilent 8453 UV visible spectroscopy system at wavelengths ranging across 200 to 450 nm at time 0, week 1, week 2, and week 4. The term “NA” means that a previously observed absorbance peak was no longer visible. The term “peak” means the two highest absorbance peaks in the UV spectrum. The term “valley” means the two lowest point between the absorbance peaks. In the case where there is only one peak or valley it means that the other, previously observed peak or valley was deteriorated at the time and temperature of the stability study. In the case where all peaks and valleys are indicated “NA” it means that the sample deteriorated entirely and no longer absorbed in the UV range at all.

Row | SMILES | melting point | stability of UV absorbance peaks over time and temperature [1]
1 | COc1cc(/C=C/C(=O)OC(CC(=O)O)C(=O)O)cc(OC)c1O (stereo not drawn) (as salt: malate) [Sinapoyl malate] | 55 to 65 °C | 
2 | O=C(/C=C/c1ccc(O)c(O)c1)OCCc1ccccc1 [CAPE, reference compound] |  | much less stability over time and temperature
3 | COc1cc(/C=C/C(=O)OC(CC(=O)O)C(=O)O)cc(OC)c1O (stereo not drawn) [Sinapoyl malate] |  | more stable over time and temperature
